The values below come from patent publication US11447465B2, “Pharmaceutical compounds for treatment of medical disorders” (Achillion Pharmaceuticals, Inc., priority 2017, dated 2022).

The first assay deals with Human Factor D (Homo sapiens (Human), UniProt P00746). The assay is described as follows: Human Factor D Assay. The assay is classed as biochemical. Particulars: Table 5; Human Factor D 80 nM, substrate Z-L-Lys-SBzl; read-out: IC50 (Stars). The protocol: Human Factor D (purified from human serum, Complement Technology, Inc.) at 80 nM final concentration is incubated with test compound at various concentrations for 5 min at room temperature in 50 mM Tris, 1M NaCl, pH 7.5. A synthetic substrate Z-L-Lys-SBzl and DTNB (Ellman's reagent) are added to final concentrations of 100 μM each. Absorbance at 405 nm (A405) is recorded at 30 second intervals for 30 min using a microplate spectrophotometer. IC50 values are calculated by nonlinear regression of Complement Factor D reaction rates as a function of test compound concentration.
Human Factor D, sequence (P00746 26-253): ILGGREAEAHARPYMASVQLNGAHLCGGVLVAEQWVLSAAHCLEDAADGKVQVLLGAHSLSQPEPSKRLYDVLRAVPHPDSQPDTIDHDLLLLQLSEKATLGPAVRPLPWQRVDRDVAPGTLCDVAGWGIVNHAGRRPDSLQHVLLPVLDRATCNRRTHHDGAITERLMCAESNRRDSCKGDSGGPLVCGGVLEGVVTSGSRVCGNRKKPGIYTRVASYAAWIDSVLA
As for `CC(=O)c1nn(CC(=O)N2[C@H](C(=O)Nc3nc(Br)ccc3C)C[C@@]3(CNC(=O)CC(F)(F)F)C[C@@H]23)c2c(C)cccc12` [Compound T-35, (1R,3S,5R)-2-(2-(3-acetyl-7-methyl-1H-indazol-1-yl)acetyl)-N-(6-bromo-3-methylpyridin-2-yl)-5-((3,3,3-trifluoropropanamido)methyl)-2-azabicyclo[3.1.0]hexane-3-carboxamide], the IC50 is under 1000 nM.

For `CC(=O)c1nn(CC(=O)N2[C@H]3C[C@@]3(C)C[C@H]2C(=O)Nc2nc(Br)ccc2C)c2c(S(C)(=N)=O)cccc12` (stereo partly drawn) [Compound T-36, (1S,3S,5S)-2-(2-(3-acetyl-7-(S-methylsulfonimidoyl)-1H-indazol-1-yl)acetyl)-N-(6-bromo-3-methylpyridin-2-yl)-5-methyl-2-azabicyclo[3.1.0]hexane-3-carboxamide], the IC50 is over 10000 nM.

As for `CC(=O)c1nn(CC(=O)N2C[C@H](F)C[C@H]2C(=O)Nc2cccc(Br)n2)c2c1CCCC2` [Compound T-37, (2S,4R)-1-(2-(3-acetyl-4,5,6,7-tetrahydro-1H-indazol-1-yl)acetyl)-N-(6-bromopyridin-2-yl)-4-fluoropyrrolidine-2-carboxamide], the IC50 lay in the range of 1000 to 10000 nM.

With `CC(=O)c1nn(CC(=O)N2[C@H]3C[C@@]3(CN(C)C)C[C@H]2C(=O)NCc2cccc(Cl)c2F)c2cc(P(C)(=O)O)ccc12` [Compound T-38, (3-acetyl-1-(2-((1S,3S,5S)-3-((3-chloro-2-fluorobenzyl)carbamoyl)-5-((dimethylamino)methyl)-2-azabicyclo[3.1.0]hexan-2-yl)-2-oxoethyl)-1H-indazol-6-yl)(methyl)phosphinic acid], the IC50 was in the range of 1000 to 10000 nM.

Turning to `CC(=O)c1nn(CC(=O)N2[C@H](C(=O)Nc3nc(Br)ccc3C)C[C@@]3(CN4C[C@H]5CCC[C@H]5C4)C[C@@H]23)c2c(C)cccc12` [Compound T-39, (1R,3S,5R)-2-(2-(3-acetyl-7-methyl-1H-indazol-1-yl)acetyl)-N-(6-bromo-3-methylpyridin-2-yl)-5-(((3aR,6aS)-hexahydrocyclopenta[c]pyrrol-2(1H)-yl)methyl)-2-azabicyclo[3.1.0]hexane-3-carboxamide], the IC50 was under 1000 nM.

For `CC(=O)c1nn(CC(=O)N2[C@H](C(=O)Nc3nc(Br)ccc3C)C[C@@]3(C)C[C@@H]23)c2c(S(C)=N)cccc12` (stereo partly drawn) [Compound T-40, (1R,3S,5R)-2-(2-(3-acetyl-7-(S-methylsulfinimidoyl)-1H-indazol-1-yl)acetyl)-N-(6-bromo-3-methylpyridin-2-yl)-5-methyl-2-azabicyclo[3.1.0]hexane-3-carboxamide], the IC50 is under 1000 nM.

As to `CC(=O)c1nn(CC(=O)N2[C@H](C(=O)Nc3nc(Br)ccc3C)C[C@@]3(C)C[C@@H]23)c2c(S(C)(=N)=O)cccc12` (stereo partly drawn) [Compound T-41, (1R,3S,5R)-2-(2-(3-acetyl-7-(S-methylsulfonimidoyl)-1H-indazol-1-yl)acetyl)-N-(6-bromo-3-methylpyridin-2-yl)-5-methyl-2-azabicyclo[3.1.0]hexane-3-carboxamide], the IC50 was under 1000 nM.

For `CC(=O)c1nn(CC(=O)N2[C@H](C(=O)Nc3nc(Br)ccc3C)C[C@@]3(CN4CC5(CCCC5)C4)C[C@@H]23)c2c(C)cccc12` [Compound T-42, (1R,3S,5R)-5-(2-azaspiro[3,4]octan-2-ylmethyl)-2-(2-(3-acetyl-7-methyl-1H-indazol-1-yl)acetyl)-N-(6-bromo-3-methylpyridin-2-yl)-2-azabicyclo[3.1.0]hexane-3-carboxamide], the IC50 was under 1000 nM.

In the case of `CC(=O)c1nn(CC(=O)N2[C@H](C(=O)Nc3nc(Br)ccc3C)C[C@@]3(CNC(=O)C4CCCC4(F)F)C[C@@H]23)c2c(C)cccc12` (stereo partly drawn) [Compound T-43, (1R,3S,5R)-2-(2-(3-acetyl-7-methyl-1H-indazol-1-yl)acetyl)-N-(6-bromo-3-methylpyridin-2-yl)-5-((2,2-difluorocyclopentane-1-carboxamido)methyl)-2-azabicyclo[3.1.0]hexane-3-carboxamide], the IC50 is under 1000 nM.

`CC(=O)c1cn(CC(=O)N2[C@H](C(=O)NCc3cccc(Cl)c3F)C[C@@]3(CN4CCN(C)CC4)C[C@@H]23)c2cc(P(=O)(O)O)ccc12` [Compound T-44, (3-acetyl-1-(2-((1R,3S,5R)-3-((3-chloro-2-fluorobenzyl)carbamoyl)-5-((4-methylpiperazin-1-yl)methyl)-2-azabicyclo[3.1.0]hexan-2-yl)-2-oxoethyl)-1H-indol-6-yl)phosphonic acid]: the IC50 was under 1000 nM.

Consider `CC(=O)c1cn(CC(=O)N2[C@H]3C[C@@]3(CN3CCN(C)CC3)C[C@H]2C(=O)NCc2cccc(Cl)c2F)c2cc(P(=O)(O)O)ccc12` [Compound T-45, (3-acetyl-1-(2-((1S,3S,5S)-3-((3-chloro-2-fluorobenzyl)carbamoyl)-5-((4-methylpiperazin-1-yl)methyl)-2-azabicyclo[3.1.0]hexan-2-yl)-2-oxoethyl)-1H-indol-6-yl)phosphonic acid], for which the IC50 is 1000 to 10000 nM.

`CC(=O)c1cn(CC(=O)N2C3CC3(CN(C)C)C[C@H]2C(=O)NCc2cccc(Cl)c2F)c2cc(P(=O)(O)O)ccc12` (stereo partly drawn) [Compound T-46, (3-acetyl-1-(2-((3S)-3-((3-chloro-2-fluorobenzyl)carbamoyl)-5-((dimethylamino)methyl)-2-azabicyclo[3.1.0]hexan-2-yl)-2-oxoethyl)-1H-indol-6-yl)phosphonic acid]: the IC50 was in the range of 1000 to 10000 nM.

In the case of `CC(=O)c1cn(CC(=O)N2[C@H](C(=O)NCc3cccc(Cl)c3F)C[C@@]3(CN(C)C)C[C@@H]23)c2cc(P(C)(=O)O)ccc12` [Compound T-47, (3-acetyl-1-(2-((1R,3S,5R)-3-((3-chloro-2-fluorobenzyl)carbamoyl)-5-((dimethylamino)methyl)-2-azabicyclo[3.1.0]hexan-2-yl)-2-oxoethyl)-1H-indol-6-yl)(methyl)phosphinic acid], the IC50 was under 1000 nM.

Consider `CC(=O)c1cn(CC(=O)N2[C@H]3C[C@@]3(CN(C)C)C[C@H]2C(=O)NCc2cccc(Cl)c2F)c2cc(P(C)(=O)O)ccc12` [Compound T-48, (3-acetyl-1-(2-((1S,3S,5S)-3-((3-chloro-2-fluorobenzyl)carbamoyl)-5-((dimethylamino)methyl)-2-azabicyclo[3.1.0]hexan-2-yl)-2-oxoethyl)-1H-indol-6-yl)(methyl)phosphinic acid], for which the IC50 lay within 1000 to 10000 nM.

For the compound `CC(=O)c1nn(CC(=O)N2[C@H](C(=O)Nc3nc(Br)ccc3C)C[C@@]3(CN(C)C)C[C@@H]23)c2cc(C(=O)NS(=O)(=O)C3CC3)ccc12` [Compound T-49, 3-acetyl-1-(2-((1R,3S,5R)-3-((6-bromo-3-methylpyridin-2-yl)carbamoyl)-5-((dimethylamino)methyl)-2-azabicyclo[3.1.0]hexan-2-yl)-2-oxoethyl)-N-(cyclopropylsulfonyl)-1H-indazole-6-carboxamide], the IC50 was under 1000 nM.

For the compound `CC(=O)c1nn(CC(=O)N2[C@H]3C[C@@]3(CN(C)C)C[C@H]2C(=O)Nc2nc(Br)ccc2C)c2cc(C(=O)NS(=O)(=O)C3CC3)ccc12` [Compound T-50, 3-acetyl-1-(2-((1S,3S,5S)-3-((6-bromo-3-methylpyridin-2-yl)carbamoyl)-5-((dimethylamino)methyl)-2-azabicyclo[3.1.0]hexan-2-yl)-2-oxoethyl)-N-(cyclopropylsulfonyl)-1H-indazole-6-carboxamide], the IC50 was 1000 to 10000 nM.

The same assay, now with this note: Table 6; Human Factor D 80 nM, substrate Z-L-Lys-SBzl; read-out: IC5 (Stars).
Consider `CC(=O)c1nn(CC(=O)N2[C@H](C(=O)Nc3nc(Br)ccc3C3CC3)C[C@@]3(C)C[C@@H]23)c2ccc(O[C@@H]3CO[C@H]4[C@@H]3OC[C@H]4O)cc12` [Compound T-51, (1R,3S,5R)-2-(2-(3-acetyl-5-(((3R,3aR,6R,6aR)-6-hydroxy-hexahydrofuro[3,2-b]furan-3-yl)oxy)-1H-indazol-1-yl)acetyl)-N-(6-bromo-3-cyclopropyl-pyridin-2-yl)-5-methyl-2-azabicyclo[3.1.0]hexane-3-carboxamide], for which the IC50 is under 1000 nM.

Turning to `CC(=O)c1nn(CC(=O)N2[C@H](C(=O)Nc3nc(Br)ccc3C)C[C@@]3(C)C[C@@H]23)c2ccc(O[C@@H]3CO[C@H]4[C@@H]3OC[C@H]4O)cc12` [Compound T-52, (1R,3S,5R)-2-(2-(3-acetyl-5-(((3R,3aR,6R,6aR)-6-hydroxy-hexahydrofuro[3,2-b]furan-3-yl)oxy)-1H-indazol-1-yl)acetyl)-N-(6-bromo-3-methylpyridin-2-yl)-5-methyl-2-azabicyclo[3.1.0]hexane-3-carboxamide], the IC50 is under 1000 nM.

Consider `CC(=O)O[C@@H]1CO[C@H]2[C@@H]1OC[C@H]2Oc1ccc2c(c1)c(C(C)=O)nn2CC(=O)N1C[C@H](F)C[C@H]1C(=O)Nc1nc(Br)ccc1C` [Compound T-53, (3R,3aR,6R,6aR)-6-((3-acetyl-1-(2-((2S,4R)-2-((6-bromo-3-methylpyridin-2-yl)carbamoyl)-4-fluoropyrrolidin-1-yl)-2-oxoethyl)-1H-indazol-5-yl)oxy)hexahydrofuro[3,2-b]furan-3-yl acetate], for which the IC50 is under 1000 nM.

For the compound `CC(=O)c1nn(CC(=O)N2C[C@H](F)C[C@H]2C(=O)Nc2cccc(Br)n2)c2ccc(OCCS(=O)(=O)CC3(C)COC3)cc12` [Compound T-54, (2S,4R)-1-(2-(3-acetyl-5-(2-(((3-methyloxetan-3-yl)methyl)sulfonyl)ethoxy)-1H-indazol-1-yl)acetyl)-N-(6-bromopyridin-2-yl)-4-fluoro-pyrrolidine-2-carboxamide], the IC50 is under 1000 nM.

Take `CC(=O)c1nn(CC(=O)N2C[C@H](F)C[C@H]2C(=O)Nc2nc(Br)ccc2C)c2ccc(OCCS(=O)(=O)CC3(C)COC3)cc12` [Compound T-55, (2S,4R)-1-(2-(3-acetyl-5-(2-(((3-methyloxetan-3-yl)methyl)sulfonyl)ethoxy)-1H-indazol-1-yl)acetyl)-N-(6-bromo-3-methylpyridin-2-yl)-4-fluoro-pyrrolidine-2-carboxamide]: the IC50 is under 1000 nM.
